We go through 4 substances from publication PMC12302718, “Molecular basis for Gβγ-SNARE-mediated inhibition of synaptic vesicle fusion” (The Journal of Biological Chemistry, 2025).

Where no end group is shown, it is not given here.

The subject of experiment [1] is partially zipped and fully zipped ternary SNARE mimetics; tSNARE. Description: Peptide array / far-Western blot with ternary SNARE mimetics and tSNARE. The class given is binding, rat. Conditions: 0.5 μM SNARE protein, far-Western probed for SNAP25. An excerpt:
Binding was quantified as a fraction of the densitometric signal of a positive control peptide corresponding to residues 48 to 62 of rat complexin-1, which interacts with the ternary SNARE complex in co-crystal structures ([41], [51], [52]).
Quantification of (A) Gβ1 and (B) Gγ2 peptides binding to the partially zipped (black striped bars) and fully zipped SNARE (gray bars). Densitometry measurements were normalized to a positive control peptide spot corresponding to a portion of the rat complexin-1 central helix (residues 48–62). Bar graphs represent the mean ± SD of three technical replicates. A, both SNARE mimetics interact with the N-terminal α-helix (H1, red), L1 (orange), B1 (yellow), and B2 (green) of Gβ1. […]
Peptide array synthesis was performed using the ResPep SL peptide synthesizer (Intavis AG) according to standard SPOT synthesis protocols ([44], [70]). […] Spots were detected using HRP-conjugated secondary antibodies as described by the manufacturer. For densitometric analysis comparing Gβ and Gγ isoforms, the signal in individual dots was quantified as a percentage of total density detected on the membrane (Quantity One and Image Lab, Bio Rad, and Image J [Schneider et al., 2012]). […] Quantification of Gβ1 and Gγ2 peptide spots binding to ternary SNARE mimetics was performed by normalizing within each blot to a positive control corresponding to residues 48 to 62 of complexin-1. […]

The target in experiment [2] is T1, Gβ1γ2/SNAP25 interaction (Homo sapiens, UniProt P60880).
T1 construct: made in house
Put plainly: Alphascreen competition-binding assay (peptides vs full-length Gβ1γ2/SNAP25). The following applies: read-out: IC50, competition of SNAP25 C-terminal peptide with full-length SNAP25 for binding to Gβ1γ2, 95% CI: 1.27–2.70 μM, n = 21 technical replicates. An excerpt: Proximity of Alphascreen beads due to Gβ1γ2/SNAP25 interactions produces a luminescent signal. […] A value of 100% was assigned to the average of all conditions tested containing only DMSO as a positive control. The data points correspond to the mean ± SD percentage of positive control luminescence (n = 3 technical replicates). Data were fitted with a four-parameter non-linear regression model in GraphPad Prism to obtain IC50 values for each peptide (Table 1).
Alphascreen luminescence measurements were performed as described ([33]). […] An EC80 concentration of 180 nM purified His6-Gβ1γ2 was made in assay buffer. Peptide stocks in DMSO were spotted onto 384-well white OptiPlates (PerkinElmer Life Sciences) at concentration ranges of 1 nM to 100 μM using a Labcyte Echo 555 Omics acoustic liquid handler (Labcyte), with DMSO being back-added to a final concentration of 0.1%. […] Subsequent to incubation while shaking for an additional 5 min, 10 μl of Alphascreen Histidine Detection Kit (nickel chelate) acceptor beads were added to a final concentration of 20 μg/ml in assay buffer. […] After being spun down briefly to settle all fluid at the bottom of the well, plates were incubated for an additional 1 h at 27 °C before being read in the EnSpire. […] IC50 concentrations for each peptide were determined by sigmoidal dose-response curve-fitting with variable slope.
Background: Bead proximity is the source of the signal in Alpha formats.

Experiment [3] concerns the target fully zipped ternary SNARE mimetic. Description: Microscale Thermophoresis (MST) affinity analysis, fully zipped SNARE. The following applies: 250 nM fluorescently labeled (Red-Tris-NTA) Gβ1γ2, SNARE 0.56 nM−19.5 μM, n = 3 technical replicates, read-out: KD, binding to fully zipped SNARE. Also on record: species or system rat. A general note: Microscale thermophoresis detects binding through changes in fluorescence in a small temperature gradient.

Experiment [4] concerns SNAP25. Conditions: read-out: Potency in competing with full-length Gβ1γ2 for binding to SNAP25; peptide competition studies; cited from earlier work. An excerpt: The importance of the N-terminal binding site is supported by the findings presented here as well as by previous findings, both in cell-based assays and in vitro binding studies ([10], [39]).

T1 sequence (P60880 whole entry): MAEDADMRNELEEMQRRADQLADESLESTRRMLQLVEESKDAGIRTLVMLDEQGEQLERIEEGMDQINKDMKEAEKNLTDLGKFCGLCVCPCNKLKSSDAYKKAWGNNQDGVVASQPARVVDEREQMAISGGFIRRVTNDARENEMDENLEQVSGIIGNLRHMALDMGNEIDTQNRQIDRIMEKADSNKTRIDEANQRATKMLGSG

Consider “Gγ2 peptide 19: 15-mer Gγ2 array peptide number 19, membrane-coupled (PASENPFREKKFFCA; also: C-terminus coupled to the membrane)”, for which the “Binding pattern, tSNARE versus ternary SNARE mimetics” value in experiment [1] was “bound to tSNARE but not ternary SNARE”.

As for TRIDEANQRATKMLGSG, the IC50 in experiment [2] is 1.84 µM.

A word on the Kd: it is the free concentration of one partner at which half of the binding sites on the other are occupied at equilibrium, for simple one-to-one binding. Consider “Gβ1γ2: His-tagged soluble Gβ1γ2 (C68S) heterodimer purified from Sf9 cells”, for which the Kd in experiment [3] was greater than 13 µM.

As for “Gβ1 residues 328 to 337: peptide corresponding to Gβ1 residues 328 to 337, from ref 39 (ATGSWDSFLK; UniProt P62873 328-337, looked up, fragment)”, the IC50 in experiment [4] was roughly 28 µM.
